Where two headings read alike, the source gives them in different places.
What was measured:
Test in all cases: SelectScreen Kinase Profiling, single point inhibition and IC50 for off-target kinases
Assay type in all cases: biochemical
off-target kinases [1] = target: T1, off-target kinases (Homo sapiens, UniProt O43318); settings: MAP3K7/MAP3K7IP1 (TAK1-TAB1), LanthaScreen Binding
T1 sequence (O43318 1-606): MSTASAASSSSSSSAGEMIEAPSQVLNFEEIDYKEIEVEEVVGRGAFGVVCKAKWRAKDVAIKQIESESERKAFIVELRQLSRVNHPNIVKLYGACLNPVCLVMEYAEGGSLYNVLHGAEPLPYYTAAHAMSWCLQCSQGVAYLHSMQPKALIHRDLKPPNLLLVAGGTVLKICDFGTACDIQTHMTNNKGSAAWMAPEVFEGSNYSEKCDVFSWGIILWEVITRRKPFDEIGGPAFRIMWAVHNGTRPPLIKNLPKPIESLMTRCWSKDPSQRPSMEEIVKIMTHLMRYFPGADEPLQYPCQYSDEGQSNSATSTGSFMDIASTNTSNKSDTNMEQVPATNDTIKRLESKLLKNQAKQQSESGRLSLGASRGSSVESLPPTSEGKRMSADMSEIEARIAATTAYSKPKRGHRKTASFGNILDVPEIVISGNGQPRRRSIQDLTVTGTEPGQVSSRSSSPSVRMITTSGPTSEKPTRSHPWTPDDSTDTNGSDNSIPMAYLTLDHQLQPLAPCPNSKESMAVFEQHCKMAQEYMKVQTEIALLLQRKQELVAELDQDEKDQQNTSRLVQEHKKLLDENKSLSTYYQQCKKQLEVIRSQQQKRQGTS

off-target kinases [2] = target: T2, off-target kinases (Homo sapiens, UniProt P36897); settings: TGFBR1 (ALK5), LanthaScreen Binding
T2 sequence (P36897 34-503): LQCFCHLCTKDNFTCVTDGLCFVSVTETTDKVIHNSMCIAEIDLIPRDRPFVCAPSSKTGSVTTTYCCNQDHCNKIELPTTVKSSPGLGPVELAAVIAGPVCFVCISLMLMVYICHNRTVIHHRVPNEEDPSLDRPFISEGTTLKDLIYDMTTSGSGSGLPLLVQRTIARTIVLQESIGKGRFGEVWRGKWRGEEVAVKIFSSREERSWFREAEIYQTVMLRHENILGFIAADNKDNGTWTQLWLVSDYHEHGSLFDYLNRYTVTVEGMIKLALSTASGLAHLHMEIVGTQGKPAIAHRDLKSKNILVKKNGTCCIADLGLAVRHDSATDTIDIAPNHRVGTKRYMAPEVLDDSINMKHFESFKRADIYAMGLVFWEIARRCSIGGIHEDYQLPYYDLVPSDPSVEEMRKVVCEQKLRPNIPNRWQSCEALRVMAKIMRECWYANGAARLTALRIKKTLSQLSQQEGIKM

off-target kinases [3] = target: off-target kinases (Homo sapiens, UniProt P37173); settings: TGFBR2, LanthaScreen Binding
off-target kinases (Homo sapiens, UniProt P37173), sequence (P37173 23-567): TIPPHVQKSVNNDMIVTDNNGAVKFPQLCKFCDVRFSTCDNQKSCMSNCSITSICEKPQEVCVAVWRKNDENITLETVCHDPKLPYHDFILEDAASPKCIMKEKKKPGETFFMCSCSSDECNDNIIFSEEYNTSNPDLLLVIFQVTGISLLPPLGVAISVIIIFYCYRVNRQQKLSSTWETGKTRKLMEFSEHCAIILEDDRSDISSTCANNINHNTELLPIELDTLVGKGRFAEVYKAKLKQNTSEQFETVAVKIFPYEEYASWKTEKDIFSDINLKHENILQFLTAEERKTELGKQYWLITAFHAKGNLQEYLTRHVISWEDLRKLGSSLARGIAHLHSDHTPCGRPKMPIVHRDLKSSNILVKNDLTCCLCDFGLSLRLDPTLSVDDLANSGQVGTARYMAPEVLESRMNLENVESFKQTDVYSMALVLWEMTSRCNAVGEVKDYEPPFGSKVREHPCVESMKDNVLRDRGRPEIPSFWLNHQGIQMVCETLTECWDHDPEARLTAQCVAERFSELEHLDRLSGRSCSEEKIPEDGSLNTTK

Question: `N#Cc1cc(-c2ncnc(Nc3ccc(N4CCN(C5COC5)CC4)cc3)n2)ccc1OC1CCOCC1` [Compound 1, 5-(4-((4-(4-(oxetan-3-yl)piperazin-1-yl)phenyl)amino)-1,3,5-triazin-2-yl)-2-((tetrahydro-2H-pyran-4-yl)oxy)benzonitrile] was tested. Which inhibition (off-target kinases [1]; read-out: % Inhibition 2) did it give?
Answer: Its inhibition is 22%.

Question: And the inhibition (off-target kinases [1]; read-out: % Inhibition Avg)?
Answer: Its inhibition is 22%.

Question: What about the inhibition (off-target kinases [2]; read-out: % Inhibition 1) of the same compound?
Answer: Its inhibition is 56%.

Question: What about the inhibition (off-target kinases [2]; read-out: % Inhibition 2) of the same compound?
Answer: The inhibition was 58%.

Question: And the inhibition (off-target kinases [2]; read-out: % Inhibition Avg)?
Answer: The inhibition was 57%.

Question: And the inhibition (off-target kinases [3]; read-out: % Inhibition 1)?
Answer: Its inhibition is 92%.

Question: And the inhibition (off-target kinases [3]; read-out: % Inhibition 2)?
Answer: Its inhibition is 95%.

Question: And the inhibition (off-target kinases [3]; read-out: % Inhibition Avg)?
Answer: The inhibition was 93%.

— patent US11572590B2, “Methods for evaluating tumor cell spheroids using 3D microfluidic cell culture device” (Dana-Farber Cancer Institute, Inc., priority 2017, dated 2023)
